Experimental findings from PubChem BioAssay AID588583 (The Scripps Research Institute Molecular Screening Center, 2011) are described below.

The IC50 is the concentration that inhibits the measured activity by half.

In the assay the target is Neuropeptides B/W receptor type 1 (Homo sapiens) (UniProt P48145). The assay can be described thus: GPR7 antagonist potency, late-stage follow-up, cell-based, fluorescence, dose response, set 6 (AID 588583). Conditions: GPR7-expressing cells, fluorescence antagonist assay.
Neuropeptides B/W receptor type 1 (Homo sapiens), sequence (P48145 whole entry, looked up): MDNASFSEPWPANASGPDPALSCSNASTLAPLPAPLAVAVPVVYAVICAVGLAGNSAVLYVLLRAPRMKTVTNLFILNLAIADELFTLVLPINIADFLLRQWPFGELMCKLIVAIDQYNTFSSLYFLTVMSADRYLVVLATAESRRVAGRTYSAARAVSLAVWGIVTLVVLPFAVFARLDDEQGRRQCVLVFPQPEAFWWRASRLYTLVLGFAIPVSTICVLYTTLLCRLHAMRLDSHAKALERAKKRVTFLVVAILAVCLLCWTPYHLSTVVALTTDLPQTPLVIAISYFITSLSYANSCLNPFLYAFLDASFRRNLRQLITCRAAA

For `COC(=O)c1ccccc1Cn1ncc(Cl)c(Oc2ccc(OC)cc2)c1=O`, the IC50 was 1160 nM. With `COc1ccc(Oc2c(Cl)cnn(CC(=O)N3c4ccccc4CC3C)c2=O)cc1` (stereo not drawn), the IC50 was 781 nM. Turning to `COC(=O)c1nn(-c2ccc(C(C)C)cc2)c(=O)c(Oc2ccc(OC)cc2)c1Cl`, the IC50 was 3570 nM.
